According to ChEMBL document CHEMBL1201862, “PubChem BioAssay data set” (2004):
Structures can show the parent of a compound that is named as a salt. Values belong to the molecule of their own block, whether it stands above or below them. Calls of active or inactive are those of the source.

Legend:
[1] = target: Eukaryotic translation initiation factor 4H (Homo sapiens, UniProt Q15056); assay: eIF4H inhibition in translation initiation, SAR follow-up (AID 435011); type: functional
[2] = target: Polyadenylate-binding protein 1 (Homo sapiens, UniProt P11940); assay: PABP inhibition in translation initiation, SAR follow-up (AID 435018); type: functional
Cytochrome P450 2C9 = Cytochrome P450 2C9 (Homo sapiens, UniProt P11712); details: Potency
[3] = target: T1, Voltage-dependent T-type calcium channel subunit alpha-1H (Homo sapiens, UniProt O95180); type: functional
[4] = target: T1, Voltage-dependent T-type calcium channel subunit alpha-1H; assay: Inhibitors of T-Type Calcium Channels. [Related pubchem assays (depositor defined):AID449739, AID463087, AID489005, AID493041, AID504579, AID504584, AID504619, AID504628]; type: functional
Hexokinase = Hexokinase (Trypanosoma brucei, UniProt Q38C41); assay: Confirmation assay for inhibitors of Trypanosoma brucei hexokinase 1-Analogue-first series. [Related pubchem assays (depositor defined):AID1430, AID1632, AID2516, AID2560, AID2579, AID2600, AID449725, AID492951]; type: functional
Aspartyl aminopeptidase = Aspartyl aminopeptidase (Plasmodium falciparum 3D7, UniProt Q8I2J3)
Procathepsin L = Procathepsin L (Homo sapiens, UniProt P07711)
Cytochrome P450 3A4 [5] = target: T2, Cytochrome P450 3A4 (Homo sapiens, UniProt P08684); details: Potency;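 note: confirmatory qHTS run detecting inhibitors and substrates of CYP3A4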
Cytochrome P450 3A4 [6] = target: T2, Cytochrome P450 3A4; details: read-out: Potency
Large T antigen = Large T antigen (Simian virus 40, UniProt P03070); type: functional, Betapolyomavirus macacae;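 note: Confirmatory-stage PubChem screen for compounds that inhibit SV40 T antigen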
[7] = target: C-C chemokine receptor type 6 (Homo sapiens, UniProt P51684); assay: CCR6 receptor antagonists, dose response, cell-based, luminescent beta-arrestin readout (AID 504728); type: functional
Bcl-2-related protein A1 = Bcl-2-related protein A1 (Mus musculus, UniProt Q07440); type: functional;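 note: confirmatory dose–response counterscreen on Bfl-1, used to check hits from a UBC13 polyubiquitin inhibitor campaign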
[8] = target: T3, Ubiquitin-conjugating enzyme E2 N (Homo sapiens, UniProt P61088); type: functional
T3 sequence (P61088 whole entry): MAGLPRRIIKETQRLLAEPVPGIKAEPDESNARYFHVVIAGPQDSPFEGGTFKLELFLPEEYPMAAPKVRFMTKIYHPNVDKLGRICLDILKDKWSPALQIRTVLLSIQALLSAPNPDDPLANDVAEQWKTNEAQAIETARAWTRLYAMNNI

Beta-galactosidase = Beta-galactosidase (Escherichia coli, UniProt Q8VNN2); assay: beta-galactosidase enzyme inhibitors and activators, dose response, artefact control for CCR6 antagonist project, biochemical, E. coli enzyme, set 3 (AID 504712); type: functional
[9] = target: T3, Ubiquitin-conjugating enzyme E2 N; type: functional; remark: listed apart in the source
Hexokinase HKDC1 = target: T4, Hexokinase HKDC1 (Homo sapiens, UniProt Q2TB90); assay: HKDC1 hexokinase inhibitors, dose response, biochemical, W721R variant (AID 504729); type: functional
T4 sequence (Q2TB90 whole entry): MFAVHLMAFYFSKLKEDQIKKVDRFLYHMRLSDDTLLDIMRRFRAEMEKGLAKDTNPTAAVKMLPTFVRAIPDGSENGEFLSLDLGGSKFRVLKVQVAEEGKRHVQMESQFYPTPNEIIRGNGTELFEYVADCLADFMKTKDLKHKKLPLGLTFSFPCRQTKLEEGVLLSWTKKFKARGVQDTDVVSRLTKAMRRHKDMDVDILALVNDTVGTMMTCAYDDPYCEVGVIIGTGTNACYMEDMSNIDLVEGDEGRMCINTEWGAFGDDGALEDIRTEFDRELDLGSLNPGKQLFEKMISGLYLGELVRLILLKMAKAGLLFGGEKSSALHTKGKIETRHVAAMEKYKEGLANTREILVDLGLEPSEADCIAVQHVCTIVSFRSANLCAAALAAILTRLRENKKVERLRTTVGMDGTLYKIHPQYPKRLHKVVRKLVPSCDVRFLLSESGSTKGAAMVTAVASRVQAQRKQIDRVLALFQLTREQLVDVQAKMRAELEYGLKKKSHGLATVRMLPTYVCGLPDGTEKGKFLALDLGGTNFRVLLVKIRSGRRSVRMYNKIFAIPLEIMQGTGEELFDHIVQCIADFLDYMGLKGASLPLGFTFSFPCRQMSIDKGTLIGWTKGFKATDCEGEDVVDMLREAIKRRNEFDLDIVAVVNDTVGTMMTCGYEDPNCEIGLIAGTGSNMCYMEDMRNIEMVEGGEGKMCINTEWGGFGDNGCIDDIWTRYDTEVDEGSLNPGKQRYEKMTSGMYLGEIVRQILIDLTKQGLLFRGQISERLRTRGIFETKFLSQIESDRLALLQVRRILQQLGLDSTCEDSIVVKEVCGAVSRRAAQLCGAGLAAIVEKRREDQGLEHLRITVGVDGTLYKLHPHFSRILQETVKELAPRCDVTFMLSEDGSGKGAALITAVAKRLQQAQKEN

Cysteine protease ATG4B = Cysteine protease ATG4B (Homo sapiens, UniProt Q9Y4P1); type: functional;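 note: Fluorescence-based dose-response confirmation assay measuring inhibition of ATG4B activity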
[10] = target: Heat shock protein HSP 90-alpha (Homo sapiens, UniProt P07900); type: functional, organism-based
Phospholipase A2 = Phospholipase A2 (Homo sapiens, UniProt P04054); type: functional;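 note: confirmatory dose-response counterscreen on phospholipase A2, testing hits that came from an ultra-high-throughput screen for ATG4B inhibitors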
Sequence of Phospholipase A2 (P04054 whole entry): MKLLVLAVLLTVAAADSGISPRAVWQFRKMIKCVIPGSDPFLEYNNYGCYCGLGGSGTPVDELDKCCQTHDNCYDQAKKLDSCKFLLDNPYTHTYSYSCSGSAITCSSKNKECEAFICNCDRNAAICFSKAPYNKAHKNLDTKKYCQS

T1 sequence (O95180 whole entry): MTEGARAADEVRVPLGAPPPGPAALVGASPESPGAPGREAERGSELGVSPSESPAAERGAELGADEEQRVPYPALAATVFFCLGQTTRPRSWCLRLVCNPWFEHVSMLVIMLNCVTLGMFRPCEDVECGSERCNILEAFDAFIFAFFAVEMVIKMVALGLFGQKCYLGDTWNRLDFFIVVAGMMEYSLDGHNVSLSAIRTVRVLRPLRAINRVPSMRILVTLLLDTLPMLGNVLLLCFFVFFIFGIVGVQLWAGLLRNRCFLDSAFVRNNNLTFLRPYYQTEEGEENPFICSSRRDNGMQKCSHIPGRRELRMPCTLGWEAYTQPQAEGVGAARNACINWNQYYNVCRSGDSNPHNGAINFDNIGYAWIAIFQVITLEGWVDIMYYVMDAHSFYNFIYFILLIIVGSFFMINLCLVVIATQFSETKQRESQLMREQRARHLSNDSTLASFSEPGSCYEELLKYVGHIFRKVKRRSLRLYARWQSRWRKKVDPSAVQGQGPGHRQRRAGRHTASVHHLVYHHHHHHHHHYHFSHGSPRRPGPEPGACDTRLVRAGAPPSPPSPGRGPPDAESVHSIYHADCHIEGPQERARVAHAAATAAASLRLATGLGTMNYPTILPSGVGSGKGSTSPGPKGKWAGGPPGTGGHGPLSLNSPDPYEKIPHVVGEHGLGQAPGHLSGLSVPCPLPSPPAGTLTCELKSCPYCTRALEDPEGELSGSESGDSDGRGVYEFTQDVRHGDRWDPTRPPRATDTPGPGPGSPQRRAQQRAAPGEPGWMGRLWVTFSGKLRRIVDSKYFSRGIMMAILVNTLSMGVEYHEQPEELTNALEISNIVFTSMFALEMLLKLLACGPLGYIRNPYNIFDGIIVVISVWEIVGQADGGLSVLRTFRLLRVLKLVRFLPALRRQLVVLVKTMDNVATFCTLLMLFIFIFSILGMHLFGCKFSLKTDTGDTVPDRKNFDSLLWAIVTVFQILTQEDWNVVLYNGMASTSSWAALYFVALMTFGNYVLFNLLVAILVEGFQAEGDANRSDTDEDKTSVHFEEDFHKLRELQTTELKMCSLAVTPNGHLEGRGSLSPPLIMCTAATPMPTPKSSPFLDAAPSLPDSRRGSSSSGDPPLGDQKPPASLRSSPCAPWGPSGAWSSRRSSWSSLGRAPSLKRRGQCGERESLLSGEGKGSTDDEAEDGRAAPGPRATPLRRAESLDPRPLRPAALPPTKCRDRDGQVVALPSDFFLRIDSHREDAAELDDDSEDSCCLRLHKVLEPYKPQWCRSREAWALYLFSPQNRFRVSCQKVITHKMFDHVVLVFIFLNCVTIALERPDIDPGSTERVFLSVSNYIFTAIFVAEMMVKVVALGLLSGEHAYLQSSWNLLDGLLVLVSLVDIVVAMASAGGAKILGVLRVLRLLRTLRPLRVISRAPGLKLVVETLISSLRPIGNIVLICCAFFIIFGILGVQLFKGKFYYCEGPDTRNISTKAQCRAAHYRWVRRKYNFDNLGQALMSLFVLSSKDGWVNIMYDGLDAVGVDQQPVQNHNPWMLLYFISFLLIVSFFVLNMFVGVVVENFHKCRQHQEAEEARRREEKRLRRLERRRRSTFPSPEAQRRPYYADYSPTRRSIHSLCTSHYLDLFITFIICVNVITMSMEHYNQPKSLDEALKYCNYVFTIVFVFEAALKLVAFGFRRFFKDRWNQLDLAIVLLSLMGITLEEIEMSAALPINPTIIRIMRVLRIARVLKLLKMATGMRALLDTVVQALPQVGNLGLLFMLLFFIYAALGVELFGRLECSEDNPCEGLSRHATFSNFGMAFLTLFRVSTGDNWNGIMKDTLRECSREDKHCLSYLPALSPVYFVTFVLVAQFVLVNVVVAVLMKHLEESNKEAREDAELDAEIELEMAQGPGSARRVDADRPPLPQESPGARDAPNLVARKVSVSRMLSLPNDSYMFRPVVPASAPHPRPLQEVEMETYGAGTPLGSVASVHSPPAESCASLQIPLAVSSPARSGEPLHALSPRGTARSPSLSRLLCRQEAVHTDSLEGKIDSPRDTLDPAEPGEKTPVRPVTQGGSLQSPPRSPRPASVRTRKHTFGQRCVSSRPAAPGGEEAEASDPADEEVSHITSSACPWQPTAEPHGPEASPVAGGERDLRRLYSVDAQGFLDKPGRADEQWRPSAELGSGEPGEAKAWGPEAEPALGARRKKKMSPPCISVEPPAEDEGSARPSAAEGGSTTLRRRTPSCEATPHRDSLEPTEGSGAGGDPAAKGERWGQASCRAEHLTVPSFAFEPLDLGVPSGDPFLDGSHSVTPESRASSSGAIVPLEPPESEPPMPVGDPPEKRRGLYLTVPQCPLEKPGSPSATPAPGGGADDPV
T2 sequence (P08684 whole entry): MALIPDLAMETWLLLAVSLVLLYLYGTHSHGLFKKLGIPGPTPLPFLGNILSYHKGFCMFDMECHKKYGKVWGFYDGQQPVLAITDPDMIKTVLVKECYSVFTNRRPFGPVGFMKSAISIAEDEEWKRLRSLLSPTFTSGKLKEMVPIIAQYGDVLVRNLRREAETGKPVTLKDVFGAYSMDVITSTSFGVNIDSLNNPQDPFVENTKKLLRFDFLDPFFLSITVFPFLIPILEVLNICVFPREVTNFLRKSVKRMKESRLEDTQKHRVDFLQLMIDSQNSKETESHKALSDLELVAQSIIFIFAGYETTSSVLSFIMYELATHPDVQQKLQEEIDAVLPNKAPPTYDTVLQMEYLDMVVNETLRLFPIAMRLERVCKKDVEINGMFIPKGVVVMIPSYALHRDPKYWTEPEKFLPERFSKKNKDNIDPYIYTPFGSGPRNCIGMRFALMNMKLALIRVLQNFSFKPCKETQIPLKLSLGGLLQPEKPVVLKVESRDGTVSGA
Sequence of C-C chemokine receptor type 6 (P51684 whole entry): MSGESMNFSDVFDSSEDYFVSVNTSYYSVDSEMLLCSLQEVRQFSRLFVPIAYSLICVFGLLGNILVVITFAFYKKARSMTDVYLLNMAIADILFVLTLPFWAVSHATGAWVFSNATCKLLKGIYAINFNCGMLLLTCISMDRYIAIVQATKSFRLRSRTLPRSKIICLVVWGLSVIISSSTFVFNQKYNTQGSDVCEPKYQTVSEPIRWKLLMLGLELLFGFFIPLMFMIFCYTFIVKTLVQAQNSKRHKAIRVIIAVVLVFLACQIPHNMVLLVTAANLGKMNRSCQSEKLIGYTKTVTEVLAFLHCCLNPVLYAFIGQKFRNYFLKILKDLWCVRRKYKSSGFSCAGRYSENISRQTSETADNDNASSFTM
Sequence of Large T antigen (P03070 whole entry): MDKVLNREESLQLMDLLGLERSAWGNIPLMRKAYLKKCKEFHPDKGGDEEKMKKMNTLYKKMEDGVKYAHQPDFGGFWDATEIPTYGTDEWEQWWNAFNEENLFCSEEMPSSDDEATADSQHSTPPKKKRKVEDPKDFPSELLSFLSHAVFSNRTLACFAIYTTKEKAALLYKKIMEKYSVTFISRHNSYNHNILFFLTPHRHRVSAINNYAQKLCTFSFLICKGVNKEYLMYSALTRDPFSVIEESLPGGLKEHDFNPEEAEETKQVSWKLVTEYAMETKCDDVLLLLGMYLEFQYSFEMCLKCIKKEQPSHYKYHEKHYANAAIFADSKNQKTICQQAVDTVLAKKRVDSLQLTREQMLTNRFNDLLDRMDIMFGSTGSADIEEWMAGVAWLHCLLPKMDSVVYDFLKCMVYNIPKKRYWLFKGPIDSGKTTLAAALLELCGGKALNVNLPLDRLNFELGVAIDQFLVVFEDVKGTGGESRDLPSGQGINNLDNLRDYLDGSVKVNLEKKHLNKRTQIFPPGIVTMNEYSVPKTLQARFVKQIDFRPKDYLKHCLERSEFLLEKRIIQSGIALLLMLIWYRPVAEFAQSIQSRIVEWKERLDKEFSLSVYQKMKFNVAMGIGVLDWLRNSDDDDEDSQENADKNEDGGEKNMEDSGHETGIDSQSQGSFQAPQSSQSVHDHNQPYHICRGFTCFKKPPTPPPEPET
Sequence of Cysteine protease ATG4B (Q9Y4P1 whole entry): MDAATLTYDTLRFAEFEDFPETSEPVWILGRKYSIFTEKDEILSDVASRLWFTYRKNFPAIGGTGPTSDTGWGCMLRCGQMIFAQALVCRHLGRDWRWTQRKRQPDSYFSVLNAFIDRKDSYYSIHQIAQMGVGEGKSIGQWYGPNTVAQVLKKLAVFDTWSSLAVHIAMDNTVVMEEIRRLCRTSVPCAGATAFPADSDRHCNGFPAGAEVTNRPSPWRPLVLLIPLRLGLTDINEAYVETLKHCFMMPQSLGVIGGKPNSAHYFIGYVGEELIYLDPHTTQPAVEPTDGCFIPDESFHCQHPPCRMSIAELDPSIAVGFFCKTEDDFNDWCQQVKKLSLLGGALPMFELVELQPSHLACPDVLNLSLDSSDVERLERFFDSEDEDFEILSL
Sequence of Bcl-2-related protein A1 (Q07440 whole entry): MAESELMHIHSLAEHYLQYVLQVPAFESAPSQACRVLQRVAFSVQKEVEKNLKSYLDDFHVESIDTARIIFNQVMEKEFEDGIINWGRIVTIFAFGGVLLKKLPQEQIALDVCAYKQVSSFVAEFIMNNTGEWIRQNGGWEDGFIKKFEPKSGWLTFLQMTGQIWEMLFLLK

SMILES: O=C(CCn1sc2ccccc2c1=O)Nc1ccccc1
IC50 (Hexokinase): 19.8 µM (active)

SMILES: Cc1cc(O)nc(SCC(=O)c2ccc(O)c(O)c2)n1
IC50 (Aspartyl aminopeptidase): 1.49 µM (active)
IC50 (Procathepsin L): > 59.6 µM (not active)

SMILES: O=c1cccc2n1C[C@H]1CNC[C@H]2C1
AC50 (Cytochrome P450 3A4 [5]): 31.6 µM (inconclusive)
AC50 (Cytochrome P450 3A4 [6]): 31.6 µM (inconclusive)

SMILES: CCCCC(CC)CNC(=N)NC(=N)NCCCCCCNC(=N)NC(=N)NCC(CC)CCCC (stereo not given) [ALEXIDINE HYDROCHLORIDE]
IC50 (Large T antigen): 29.1 µM (active)
IC50 [7]: 25.9 µM (inactive)
IC50 (Bcl-2-related protein A1): 5.95 µM (active)
IC50 [8]: 1.98 µM (active)
IC50 (Beta-galactosidase): > 66.6 µM (inactive)
IC50 [9]: 1.73 µM (active)
IC50 (Hexokinase HKDC1): 14.2 µM (active)
IC50 (Cysteine protease ATG4B): 3.89 µM (active)
AC50 [10]: 4.05 µM (active)
IC50 (Phospholipase A2): 9.51 µM (active)

Further lines, results first:

IC50 [1]: > 100 µM (inactive)
IC50 [2]: > 100 µM (inactive)
SMILES: COc1cc(C=NNC(=O)c2ccc(O)cc2)ccc1OCC(=O)Nc1cccc([N+](=O)[O-])c1

AC50 (Cytochrome P450 2C9): 25.1 µM (inconclusive)
SMILES: COc1cccc(-c2cc(=O)c3cc(O)ccc3o2)c1

EC50 [3]: 2.64 µM (active)
EC50 [4]: 5.25 µM (active)
SMILES: Cc1cccc(NC(=O)C23CCC(C)(C2Br)C3(C)C)c1 (stereo not given)
